Where two headings read alike, the source gives them in different places.
What was measured:
[1] = target: T1, c-Met (baculovirus expressed human c-Met kinase domain P948-S1343) (Homo sapiens, UniProt P08581); assay: c-Met Luciferase-Coupled Chemiluminescent Kinase assay (LCCA); type: biochemical;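 also: kinase activity read as percent ATP left after reaction, by luciferase-luciferin chemiluminescence, with 1 µM ATP and 1 µM poly-EY substrate, 2 h at ambient temperature, 10-point dose-response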
T1 construct: human c-Met kinase domain P948-S1343; host or cells: baculovirus expression
T1 sequence (P08581 1011-1343 limits assumed): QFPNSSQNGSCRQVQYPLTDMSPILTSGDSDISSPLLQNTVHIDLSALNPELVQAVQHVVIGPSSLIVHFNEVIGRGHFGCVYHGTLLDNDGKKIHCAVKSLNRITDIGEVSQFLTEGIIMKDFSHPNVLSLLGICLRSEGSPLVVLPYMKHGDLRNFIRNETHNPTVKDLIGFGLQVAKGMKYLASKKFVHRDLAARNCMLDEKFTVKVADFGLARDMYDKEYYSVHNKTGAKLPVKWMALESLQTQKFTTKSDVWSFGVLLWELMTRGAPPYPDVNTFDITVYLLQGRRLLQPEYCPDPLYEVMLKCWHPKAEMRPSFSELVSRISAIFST

[2] = target: T2, Flt-3 (baculovirus expressed human Flt-3 kinase domain R571-S993) (Homo sapiens, UniProt P36888); assay: biochemical; details: read-out: flt3 IC50;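 also: Luciferase-coupled chemiluminescent kinase assay, activity read as percent ATP left after a 3 h reaction at room temperature, ATP near KM, 10-point dose-response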
T2 construct: human Flt-3 kinase domain R571-S993; host or cells: baculovirus expression
T2 sequence (P36888 571-993): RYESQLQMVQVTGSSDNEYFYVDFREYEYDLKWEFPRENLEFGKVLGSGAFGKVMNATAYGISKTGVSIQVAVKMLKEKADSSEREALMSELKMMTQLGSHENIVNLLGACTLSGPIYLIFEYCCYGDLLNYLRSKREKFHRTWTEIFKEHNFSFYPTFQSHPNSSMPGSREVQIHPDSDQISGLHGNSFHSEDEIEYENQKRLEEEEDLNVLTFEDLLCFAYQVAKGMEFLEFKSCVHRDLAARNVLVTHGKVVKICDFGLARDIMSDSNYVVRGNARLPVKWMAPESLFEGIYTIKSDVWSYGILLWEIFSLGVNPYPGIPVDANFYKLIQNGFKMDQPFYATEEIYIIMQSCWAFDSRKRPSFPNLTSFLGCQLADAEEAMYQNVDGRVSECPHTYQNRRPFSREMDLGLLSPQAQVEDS
Procedure: Kinase activity and compound inhibition are investigated using one or more of the three assay formats described below. The ATP concentrations for each assay are selected to be close to the Michaelis-Menten constant (KM) for each individual kinase. Dose-response experiments are performed at 10 different inhibitor concentrations in a 384-well plate format.
Biochemical activity for flt-3 was assessed using a Luciferase-Coupled Chemiluminescent Kinase assay (LCCA) format. Kinase activity was measured as the percent ATP remaining following the kinase reaction. Remaining ATP was detected by luciferase-luciferin-coupled chemiluminescence. […] The mixture is incubated at ambient temperature for 3 hours after which 20 uL luciferase-luciferin mix is added and the chemiluminescent signal read using a Wallac Victor^2 reader.

[3] = target: c-Kit kinase (Homo sapiens, UniProt P10721); assay: c-Kit AlphaScreen kinase assay; type: biochemical;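 also: c-Kit kinase phosphorylating biotinylated poly(Glu,Tyr), ATP near its KM, 1 h reaction at ambient temperature, AlphaScreen chemiluminescence with streptavidin donor and anti-phosphotyrosine acceptor beads, 10-point inhibitor titration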
Chain of c-Kit kinase (P10721 26-976): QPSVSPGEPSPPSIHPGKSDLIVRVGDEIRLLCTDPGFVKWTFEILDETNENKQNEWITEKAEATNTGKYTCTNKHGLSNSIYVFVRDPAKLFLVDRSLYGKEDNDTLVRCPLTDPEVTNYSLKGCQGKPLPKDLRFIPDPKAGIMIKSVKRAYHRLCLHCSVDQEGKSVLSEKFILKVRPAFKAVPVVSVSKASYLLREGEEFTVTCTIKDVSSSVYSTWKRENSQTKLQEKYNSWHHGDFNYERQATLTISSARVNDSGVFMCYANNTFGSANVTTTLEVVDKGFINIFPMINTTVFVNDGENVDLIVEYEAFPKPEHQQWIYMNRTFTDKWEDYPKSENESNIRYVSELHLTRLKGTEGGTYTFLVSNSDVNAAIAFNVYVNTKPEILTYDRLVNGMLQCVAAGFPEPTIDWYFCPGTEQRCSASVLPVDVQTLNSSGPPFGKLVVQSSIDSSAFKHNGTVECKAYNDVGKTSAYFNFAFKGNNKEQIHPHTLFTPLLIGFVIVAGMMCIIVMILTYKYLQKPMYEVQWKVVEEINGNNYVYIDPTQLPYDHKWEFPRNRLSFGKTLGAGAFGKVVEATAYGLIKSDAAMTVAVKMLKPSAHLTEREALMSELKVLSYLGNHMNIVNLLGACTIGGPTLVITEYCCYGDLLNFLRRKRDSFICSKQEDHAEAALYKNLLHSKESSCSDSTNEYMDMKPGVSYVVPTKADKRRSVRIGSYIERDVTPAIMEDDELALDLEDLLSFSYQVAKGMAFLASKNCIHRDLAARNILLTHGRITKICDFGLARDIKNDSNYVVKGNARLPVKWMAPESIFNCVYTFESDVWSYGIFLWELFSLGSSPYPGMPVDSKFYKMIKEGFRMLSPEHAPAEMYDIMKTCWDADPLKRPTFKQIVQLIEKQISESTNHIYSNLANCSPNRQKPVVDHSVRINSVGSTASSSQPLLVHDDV

[4] = target: T3, Flt-4 (baculovirus expressed human Flt-4 kinase domain D725-R1298) (Homo sapiens, UniProt P35916); assay: flt-4 Alphascreen Tyrosine Kinase assay; type: biochemical; details: read-out: flt4 IC50;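 also: AlphaScreen chemiluminescence read-out of biotinylated poly(Glu,Tyr) 4:1 phosphorylation via streptavidin donor and PY100 anti-phosphotyrosine acceptor beads, ATP near KM, 1 hr kinase reaction, 10-point dose-response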
T3 construct: human Flt-4 kinase domain D725-R1298; host or cells: baculovirus expression
T3 sequence (P35916 725-1298 isoform P35916-1): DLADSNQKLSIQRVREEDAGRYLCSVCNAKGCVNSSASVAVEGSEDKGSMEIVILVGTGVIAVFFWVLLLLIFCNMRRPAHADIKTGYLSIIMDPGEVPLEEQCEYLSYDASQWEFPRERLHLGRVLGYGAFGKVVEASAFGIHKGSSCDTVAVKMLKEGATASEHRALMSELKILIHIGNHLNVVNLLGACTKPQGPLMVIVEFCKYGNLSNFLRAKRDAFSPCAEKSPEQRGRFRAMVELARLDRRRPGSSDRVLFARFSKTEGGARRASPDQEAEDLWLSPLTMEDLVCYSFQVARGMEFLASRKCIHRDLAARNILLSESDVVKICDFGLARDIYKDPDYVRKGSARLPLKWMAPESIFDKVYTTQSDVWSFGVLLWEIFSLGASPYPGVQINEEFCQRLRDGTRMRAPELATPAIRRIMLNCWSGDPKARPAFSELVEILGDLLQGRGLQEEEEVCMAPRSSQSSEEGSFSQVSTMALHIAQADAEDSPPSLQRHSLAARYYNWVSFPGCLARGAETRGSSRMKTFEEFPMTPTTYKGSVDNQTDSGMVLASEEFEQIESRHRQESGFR

[5] = target: T4, KDR (baculovirus expressed human KDR kinase domain D807-V1356) (Homo sapiens, UniProt P35968); assay: biochemical;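 also: Luciferase-coupled chemiluminescent kinase assay, activity read as percent ATP left after 4 h reaction at ambient temperature, ATP near KM, 10-point dose-response in 384-well plates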
T4 construct: human KDR kinase domain D807-V1356; host or cells: baculovirus expression
T4 sequence (P35968 807-1356): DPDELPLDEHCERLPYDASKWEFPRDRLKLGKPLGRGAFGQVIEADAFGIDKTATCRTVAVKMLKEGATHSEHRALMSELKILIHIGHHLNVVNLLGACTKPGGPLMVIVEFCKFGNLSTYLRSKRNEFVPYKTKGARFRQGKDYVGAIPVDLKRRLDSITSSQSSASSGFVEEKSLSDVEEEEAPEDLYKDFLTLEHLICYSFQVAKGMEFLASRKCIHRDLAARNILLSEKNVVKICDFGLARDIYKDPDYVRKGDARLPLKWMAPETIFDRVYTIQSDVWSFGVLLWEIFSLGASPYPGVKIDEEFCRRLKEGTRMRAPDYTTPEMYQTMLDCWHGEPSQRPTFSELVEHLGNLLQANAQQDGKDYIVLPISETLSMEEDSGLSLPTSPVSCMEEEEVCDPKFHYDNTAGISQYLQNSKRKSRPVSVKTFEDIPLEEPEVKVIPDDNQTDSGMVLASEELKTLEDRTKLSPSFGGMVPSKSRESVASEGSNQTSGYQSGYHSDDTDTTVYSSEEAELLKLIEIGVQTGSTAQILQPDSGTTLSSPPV

[6] = Table 4, inhibition as IC50 class

SMILES | IC50 [1, 6] | IC50 [2, 6] | IC50 [3, 6] | IC50 [4, 6] | IC50 [5, 6] | IC50 [1] | IC50 [2] | IC50 [3] | IC50 [4] | IC50 [5]
COc1ccc(Br)cc1CCNC(=O)C(=O)Nc1ccc(Oc2ccnc3cc(OCC4CCNCC4)c(OC)cc23)c(F)c1 [Example 280, N-{2-[5-bromo-2-(methyloxy)phenyl]ethyl}-N′-[3-fluoro-4-({6-(methyloxy)-7-[(piperidin-4-ylmethyl)oxy]quinolin-4-yl}oxy)phenyl]ethanediamide] | < 50 nM | < 50 nM | < 50 nM | < 50 nM | < 50 nM | – | – | – | – | –
COc1cc2c(Oc3ccc(NC(=O)C(=O)NCc4cc(C(F)(F)F)ccc4F)cc3F)ccnc2cc1OCC1CCNCC1 [Example 281, N-[3-fluoro-4-({6-(methyloxy)-7-[(piperidin-4-ylmethyl)oxy]quinolin-4-yl}oxy)phenyl]-N′-{[2-fluoro-5-(trifluoromethyl)phenyl]methyl}ethanediamide] | < 50 nM | < 50 nM | 50 to 500 nM | 50 to 500 nM | < 50 nM | – | – | – | – | –
COc1cc2c(Oc3ncc(NC(=O)C4(C(=O)Nc5ccc(F)cc5)CC4)cc3Cl)ccnc2cc1OCC1CCNCC1 [Example 282, N-[5-chloro-6-({6-(methyloxy)-7-[(piperidin-4-ylmethyl)oxy]quinolin-4-yl}oxy)pyridin-3-yl]-N′-(4-fluorophenyl)cyclopropane-1,1-dicarboxamide] | – | – | – | – | – | < 50 nM | < 50 nM | < 50 nM | < 50 nM | < 50 nM
COc1cc2c(Oc3ccc(NC(=O)C(=O)NC(C)c4ccc(F)cc4)cc3F)ccnc2cc1OCC1CCNCC1 (stereo not shown) [Example 283, N-[3-fluoro-4-({6-(methyloxy)-7-[(piperidin-4-ylmethyl)oxy]quinolin-4-yl}oxy)phenyl]-N′-[1-(4-fluorophenyl)ethyl]ethanediamide] | – | – | – | – | – | < 50 nM | < 50 nM | 50 to 500 nM | 50 to 500 nM | < 50 nM
COc1cc2c(Oc3ccc(NC(=O)C(=O)N[C@@H](Cc4ccccc4)C(=O)N4CCCC4)cc3F)ccnc2cc1OCC1CCNCC1 [Example 284, N-[3-fluoro-4-({6-(methyloxy)-7-[(piperidin-4-ylmethyl)oxy]quinolin-4-yl}oxy)phenyl]-N′-[(1S)-2-oxo-1-(phenylmethyl)-2-pyrrolidin-1-ylethyl]ethanediamide] | – | – | – | – | – | < 50 nM | 50 to 500 nM | 50 to 500 nM | 500 to 5000 nM | 500 to 5000 nM
COc1cc2c(Oc3ccc(NC(=O)C(=O)NCCc4ccccc4)cc3F)ncnc2cc1OCC1C[C@H]2CNC[C@H]2C1 (stereo partly drawn) [Example 285, N-{3-fluoro-4-[(6-(methyloxy)-7-{[(3aR,6aS)-octahydrocyclopenta[c]pyrrol-5-ylmethyl]oxy}quinazolin-4-yl)oxy]phenyl}-N′-(2-phenylethyl)ethanediamide] | – | – | – | – | – | < 50 nM | < 50 nM | < 50 nM | < 50 nM | < 50 nM
COc1cc2c(Oc3ccc(NC(=O)C(=O)NCCc4ccc(N)cc4)cc3F)ccnc2cc1OCC1CCNCC1 [Example 286, N-[2-(4-aminophenyl)ethyl]-N′-[3-fluoro-4-({6-(methyloxy)-7-[(piperidin-4-ylmethyl)oxy]quinolin-4-yl}oxy)phenyl]ethanediamide] | – | – | – | – | – | < 50 nM | 50 to 500 nM | 50 to 500 nM | 50 to 500 nM | 50 to 500 nM
COc1cc2c(Oc3ccc(NC(=O)C(=O)N4CCC(Cc5ccccc5)CC4)cc3F)ccnc2cc1OCC1CCNCC1 [Example 287, N-[3-fluoro-4-({6-(methyloxy)-7-[(piperidin-4-ylmethyl)oxy]quinolin-4-yl}oxy)phenyl]-2-oxo-2-[4-(phenylmethyl)piperidin-1-yl]acetamide] | – | – | – | – | – | < 50 nM | < 50 nM | 50 to 500 nM | 50 to 500 nM | < 50 nM
COc1cc2nccc(Oc3ccc(NC(=O)CC(=O)Nc4ccc(F)cc4)cc3)c2cc1OC [Example 288, N-(4-{[6,7-bis(methyloxy)quinolin-4-yl]oxy}phenyl)-N′-(4-fluorophenyl)propanediamide] | – | – | – | – | – | < 50 nM | < 50 nM | < 50 nM | < 50 nM | < 50 nM
COc1cc2nccc(Oc3ncc(NC(=O)CC(=O)Nc4ccccc4)cc3Cl)c2cc1OC [Example 291, N-(6-{[6,7-bis(methyloxy)quinolin-4-yl]oxy}-5-chloropyridin-3-yl)-N′-phenylpropanediamide] | – | – | – | – | – | < 50 nM | < 50 nM | 50 to 500 nM | 500 to 5000 nM | 500 to 5000 nM
COc1cc2nccc(Oc3ncc(NC(=O)C(C)(C)C(=O)Nc4ccc(F)cc4)cc3Cl)c2cc1OC [Example 292, N-(6-{[6,7-bis(methyloxy)quinolin-4-yl]oxy}-5-chloropyridin-3-yl)-N′-(4-fluorophenyl)-2,2-dimethylpropanediamide] | – | – | – | – | – | 50 to 500 nM | < 50 nM | 50 to 500 nM | 50 to 500 nM | 50 to 500 nM
CCNC(=O)C(=O)Nc1ccc(Oc2ccnc3cc(OCC4CCNCC4)c(OC)cc23)c(F)c1 [Example 293, N-ethyl-N′-[3-fluoro-4-({6-(methyloxy)-7-[(piperidin-4-ylmethyl)oxy]quinolin-4-yl}oxy)phenyl]ethanediamide] | – | – | – | – | – | < 50 nM | 50 to 500 nM | 50 to 500 nM | 50 to 500 nM | 50 to 500 nM
COc1cc2c(Oc3ccc(NC(=O)C(=O)NC(C)C)cc3F)ccnc2cc1OCC1CCNCC1 [Example 294, N-[3-fluoro-4-({6-(methyloxy)-7-[(piperidin-4-ylmethyl)oxy]quinolin-4-yl}oxy)phenyl]-N′-(1-methylethyl)ethanediamide] | – | – | – | – | – | < 50 nM | 50 to 500 nM | 50 to 500 nM | 500 to 5000 nM | 50 to 500 nM
CCCCNC(=O)C(=O)Nc1ccc(Oc2ccnc3cc(OCC4CCNCC4)c(OC)cc23)c(F)c1 [Example 295, N-butyl-N′-[3-fluoro-4-({6-(methyloxy)-7-[(piperidin-4-ylmethyl)oxy]quinolin-4-yl}oxy)phenyl]ethanediamide] | – | – | – | – | – | < 50 nM | 50 to 500 nM | 50 to 500 nM | 50 to 500 nM | 50 to 500 nM
COCCNC(=O)C(=O)Nc1ccc(Oc2ccnc3cc(OCC4CCNCC4)c(OC)cc23)c(F)c1 [Example 296, N-[3-fluoro-4-({6-(methyloxy)-7-[(piperidin-4-ylmethyl)oxy]quinolin-4-yl}oxy)phenyl]-N′-[2-(methyloxy)ethyl]ethanediamide] | – | – | – | – | – | 50 to 500 nM | 50 to 500 nM | 50 to 500 nM | 500 to 5000 nM | 50 to 500 nM
COc1cc2c(Oc3ccc(NC(=O)C(=O)NCC4CC4)cc3F)ccnc2cc1OCC1CCNCC1 [Example 297, N-(cyclopropylmethyl)-N′-[3-fluoro-4-({6-(methyloxy)-7-[(piperidin-4-ylmethyl)oxy]quinolin-4-yl}oxy)phenyl]ethanediamide] | – | – | – | – | – | < 50 nM | 50 to 500 nM | 50 to 500 nM | 50 to 500 nM | 50 to 500 nM
COc1cc2c(Oc3ccc(NC(=O)C(=O)NCCN4CCOCC4)cc3F)ccnc2cc1OCC1CCNCC1 [Example 298, N-[3-fluoro-4-({6-(methyloxy)-7-[(piperidin-4-ylmethyl)oxy]quinolin-4-yl}oxy)phenyl]-N′-(2-morpholin-4-ylethyl)ethanediamide] | – | – | – | – | – | 50 to 500 nM | < 50 nM | 50 to 500 nM | 50 to 500 nM | < 50 nM
COc1cc2c(Oc3ccc(NC(=O)C(=O)N4CCCC4)cc3F)ccnc2cc1OCC1CCNCC1 [Example 299, N-[3-fluoro-4-({6-(methyloxy)-7-[(piperidin-4-ylmethyl)oxy]quinolin-4-yl}oxy)phenyl]-2-oxo-2-pyrrolidin-1-ylacetamide] | – | – | – | – | – | < 50 nM | 50 to 500 nM | 50 to 500 nM | 50 to 500 nM | 50 to 500 nM
CCN(C)C(=O)C(=O)Nc1ccc(Oc2ccnc3cc(OCC4CCNCC4)c(OC)cc23)c(F)c1 [Example 300, N-ethyl-N′-[3-fluoro-4-({6-(methyloxy)-7-[(piperidin-4-ylmethyl)oxy]quinolin-4-yl}oxy)phenyl]-N-methylethanediamide] | – | – | – | – | – | < 50 nM | 50 to 500 nM | 500 to 5000 nM | 50 to 500 nM | 50 to 500 nM
COc1cc2nccc(Oc3ncc(NC(=O)C4(C(=O)NCc5ccccc5)CC4)cc3Cl)c2cc1OC [Example 301, N-(6-{[6,7-bis(methyloxy)quinolin-4-yl]oxy}-5-chloropyridin-3-yl)-N′-(phenylmethyl)cyclopropane-1,1-dicarboxamide] | – | – | – | – | – | < 50 nM | 50 to 500 nM | 50 to 500 nM | 50 to 500 nM | 500 to 5000 nM
